For data set [1], the system named is A549 human lung cancer line. Kind of data set: MTT cell viability assay, A549. Format: cell-based. The method, then:
(§1) HSC-2 human oral cancer cell line, T24 human bladder cancer cell line, and A549 human lung cancer line were cultured in DMEM/F12 medium and supplemented with 10% fetal bovine serum and 50 μg/mL gentamicin at 37 °C in a humidified 5% CO2 incubator. For each compound tested, powder was dissolved in DMSO at 100 mM concentration. This stock solution was then diluted in culture medium to final concentration values ranging between 1 µM and 100 µM. For each sample, DMSO was kept constant at 0.1% final concentration. The day before starting treatment, cells were seeded in 96-well plates, at a density of 2000 cells/well. Cells were allowed to attach overnight and then incubated with compounds at different concentrations, or with DMSO only, for 24, 48, and 72 h. All experiments were performed in triplicate.
(§2) Cell proliferation was determined using a colorimetric assay with 3-(4,5-dimethylthiazol-2-yl)-2,5-diphenyl tetrazolium bromide (MTT). The MTT assay measures the conversion of MTT to insoluble formazan by dehydrogenase enzymes of the intact mitochondria of living cells. Cell proliferation was evaluated by measuring the conversion of the tetrazolium salt MTT to formazan crystals upon treatment with compounds or DMSO only for 24, 48, and 72 h. Briefly, cells were incubated for 2 h at 37 °C with 100 µL fresh culture medium containing 5 µL of MTT reagent (5 mg/mL in PBS). The medium was removed and 200 µL isopropanol were added. The amount of formazan crystals formed correlated directly with the number of viable cells. The reaction product was quantified by measuring the absorbance at 540 nm using a plate reader. Experiments were repeated three times. Results were expressed as a percentage of the control (the control equals 100% and corresponds to the absorbance value of each sample at time zero) and presented as mean values ± standard deviation of three independent experiments performed in triplicate.

The subject of data set [2] is HSC-2 human oral cancer cell line. Kind of data set: MTT cell viability assay, HSC-2. The class given is cell-based. The method, then:
as §1, §2

A further data set addresses T1, NNMT (Homo sapiens, UniProt P40261).
T1 sequence (P40261 1-264): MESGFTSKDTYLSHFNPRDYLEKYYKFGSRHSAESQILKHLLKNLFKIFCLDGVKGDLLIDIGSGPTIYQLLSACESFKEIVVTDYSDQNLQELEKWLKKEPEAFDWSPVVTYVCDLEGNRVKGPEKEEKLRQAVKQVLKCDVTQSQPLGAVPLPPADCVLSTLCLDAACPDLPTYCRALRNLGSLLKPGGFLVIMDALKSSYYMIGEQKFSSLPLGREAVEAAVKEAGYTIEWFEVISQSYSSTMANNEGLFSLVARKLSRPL
Kind of data set: 1-Methylnicotinamide (MNA) quantification in A549 cells (LC-MS). To be noted: A549 lung carcinoma cells; 0.1–100 µM; 24-h treatment (Figure 4).

Data set [3] relates to T24 human bladder cancer cell line. Kind of data set: MTT cell viability assay, T24. Format: cell-based. As for the experimental part: as §1, §2
Background: Tetrazolium dyes change colour on reduction, which living cells bring about.

A short description of data set [4]: Ester stability assay in buffer (RP-HPLC). Particulars: for percentage of compound peak area present after 16 h of incubation, PBS: PBS buffer pH 7.4, 16 h; for percentage of compound peak area present after 16 h of incubation, PBS / percentage of compound peak area present after 16 h of incubation, Tris: room temperature, 1 mM compound; for percentage of compound peak area present after 16 h of incubation, Tris: Tris buffer pH 8.4, 16 h; for hydrolytic stability in buffer (in words): PBS pH 7.4 and Tris pH 8.4, over 16 h. Format: physicochemical. As for the experimental part: The prodrugs were evaluated for their stability in both PBS buffer at pH 7.4 and Tris buffer at pH 8.4. The compounds were dissolved in DMSO at a concentration of 40 mM and diluted with the respective buffer to a final concentration of 1 mM. Compounds were tested directly (t0) and subsequently every 2 h over a time period of 16 h by HPLC. Compounds were eluted from a Dr. Maisch ReproSil-Pur C18 column (4.6 × 250 mm, 10 μm particle size, Dr. Maisch, Ammerbuch-Entringen, Germany) with the following solvent system at a flow rate of 0.5 mL/min: solvent A, 0.1% trifluoroacetic acid in water/acetonitrile (95:5); solvent B, 0.1% trifluoroacetic acid in water/acetonitrile (5:95). Gradient elution was as follows: 100:0 (A/B) to 0:100 (A/B) over 8 min, 0:100 (A/B) for 1 min, then reversion back to 100:0 (A/B) over 1 min, 100:0 (A/B) for 2 min. The formation of the parent compound was evaluated and normalized by measuring the peak area at 214 nm and comparing it to the initial timepoint.
All prodrugs prepared were first tested for their inhibitory activity against NNMT using a biochemical enzymatic activity assay. […] Both these buffers and pHs have been used in the different biochemical and cellular assays described in this report. Compounds were dissolved in DMSO at a concentration of 40 mM and diluted with the respective buffer to a final concentration of 1 mM. Compound stability was then assessed by RP-HPLC directly (t0) and subsequently every 2 h over a time period of 16 h. […] Even for the rather labile methyl ester 12b, the TML group in 14b results in a decrease in hydrolysis of the methyl ester.

The subject of a further data set is pig liver esterase (PLE). The data set can be described thus: Esterase-mediated hydrolysis to the parent compound (RP-HPLC). The class given is in vitro ADME. The method, then:
The conversion of the prodrugs to the parent compound by esterases was evaluated using pig liver esterase (PLE, 18 U/mg, Sigma-Aldrich, St. Louis, MO, USA) in PBS at pH 7.4. Compounds were dissolved in DMSO at 40 mM, diluted to a final concentration of 2 mM with PBS, and added to an equal volume of a 10 mg/mL solution of PLE in PBS (pH 7.4), resulting in final concentrations of 2.5% DMSO, 1 mM compound, and 5 mg/mL PLE. At different time-points 50 µL aliquots were taken, added to 100 µL acetonitrile to precipitate the proteins, and centrifuged for 5 min at 10,000 rpm. The supernatant was subsequently analyzed by HPLC as described in Section 2.2 above.
The next step was to establish whether compounds 12e and 14e are converted to the parent compound in the presence of an esterase.

A value given as a limit tells only on which side of the number the result lay.

Description for NNMT: Human lung adenocarcinoma line (A549, ATCC, Manassas, VA, USA) was cultured according to the provider’s indications and seeded in 6-well format. […] After incubation, effluent samples were taken and frozen (−80 °C) for further MNA measurement. Cells also were collected, centrifuged (2 × 500 G/5 min.), and frozen both for the measurement of intracellular MNA and for BCA protein assay.
The quantification of 1-methylnicotinamide (MNA), nicotinamide (NA), nicotinic acid (NicA), 1-methyl-2-pyridone-5-carboxamide (Met-2Pyr), and 1-methyl-4-pyridone-5-carboxamide (Met-4Pyr) was performed by applying ultra-high pressure liquid chromatography coupled to tandem mass spectrometry (UPLC-MS) according to the methodology previously described with minor modifications [35]. A UPLC-MS system comprised of a UPLC Ultimate 3000 (Dionex, Thermo Scientific, Waltham, MA, USA) connected to a TSQ Quantum Ultra mass spectrometer (Thermo Scientific, Waltham, MA, USA) equipped with a heated electrospray ionization interface (HESI-II Probe, Waltham, MA, USA) was used. Chromatographic separation of analytes was carried out on an Aquasil C18 analytical column (4.6 mm × 150 mm, 5 mm; Thermo Scientific, Waltham, MA, USA) under isocratic elution using acetonitrile with 0.1% of formic acid (A) and 5 mM ammonium formate in water (B) as mobile phases delivered at the flow rate of 0.8 mL/min (A:B, 80:20, v/v). The cell pellet was resuspended in 60 µL of deionized water and 50 µL of suspension was transferred to a fresh test tube. An amount of 50 µL of effluent sample was used for the measurement of extracellular MNA. The internal standard (IS) containing MNA-d3 was added to each sample (5 µL) obtaining the final concentration of 500 ng/mL. After the sample mixing, the proteins were precipitated using 100 μL of acidified acetonitrile (0.1% of formic acid), and samples were mixed (10 min), cooled at 4 °C (15 min), and finally centrifuged (15,000× g, 15 min, 4 °C). A clear supernatant was transferred to a chromatographic vial and directly injected (5 µL) into UPLC-MS system. […] The concentration of MNA was calculated based on the calibration curve plotted for the analyte as the relationship between the peak area ratios of analyte/IS to the nominal concentration of the analyte. The concentration of analytes was normalized to milligram of proteins, which was assessed using a Pierce^TM BCA Protein Assay Kit (Thermo Fisher, Waltham, MA, USA) and a Synergy4 multiplate reader (BioTek, Winooski, VT, USA). […]
Using this assay, the levels of MNA produced by NNMT in an A549 lung carcinoma cell line can be quantified by means of a sensitive LC-MS method.

On to `CNc1ccc(C(N)=O)cn1` [Compound 6-MANA, 6-methylamino-nicotinamide, reference compound], for which the “effect on cell viability (MTT)” value in data set [1] (100 µM, 24, 48 and 72 h) is reported as “no effect”; in data set [1] (1 and 10 µM, 24, 48 and 72 h), “no effects”; in data set [2] (100 µM, 24, 48 and 72 h), “no effect”; in data set [2] (1 and 10 µM, 24, 48 and 72 h), “no effects”; in data set [3] (100 µM, 24, 48 and 72 h) it was “no effect”; in data set [3] (1 and 10 µM, 24, 48 and 72 h), “no effects”. The “effect on cellular MNA levels” value on NNMT was “high concentrations of both 6-MANA and GYZ-319 are required to substantially decrease the levels of MNA”.

On to `COC(=O)[C@@H](N)CCN(C/C=C/c1ccc(C#N)cc1)C[C@H]1O[C@@H](n2cnc3c(N)ncnc32)[C@H](O)[C@@H]1O` [Compound 12b, Methyl-(S)-2-amino-4-((((2R,3S,4R,5R)-5-(6-amino-9H-purin-9-yl)-3,4-dihydroxy-tetrahydrofuran-2-yl)methyl)((E)-3-(4-cyanophenyl)allyl)amino)butanoate], for which, in data set [4], the “percentage of compound peak area present after 16 h of incubation, PBS” value (“percentage of compound peak area present … PBS” for short) was determined as 36.97% and the “percentage of compound peak area present after 16 h of incubation, Tris” value (from here on “percentage of compound peak area present … Tris”) is recorded as 22.59%.

Take `CCOC(=O)[C@@H](N)CCN(C/C=C/c1ccc(C#N)cc1)C[C@H]1O[C@@H](n2cnc3c(N)ncnc32)[C@H](O)[C@@H]1O` [Compound 12c, Ethyl-(S)-2-amino-4-((((2R,3S,4R,5R)-5-(6-amino-9H-purin-9-yl)-3,4-dihydroxytetrahydrofuran-2-yl)methyl)((E)-3-(4-cyanophenyl)allyl)amino)butanoate]: in data set [4], the “percentage of compound peak area present … PBS” value is on record as 68.36% and the “percentage of compound peak area present … Tris” value worked out at 54.84%.

With `CCCOC(=O)[C@@H](N)CCN(C/C=C/c1ccc(C#N)cc1)C[C@H]1O[C@@H](n2cnc3c(N)ncnc32)[C@H](O)[C@@H]1O` [Compound 12d, Propyl-(S)-2-amino-4-((((2R,3S,4R,5R)-5-(6-amino-9H-purin-9-yl)-3,4-dihydroxy-tetrahydrofuran-2-yl)methyl)((E)-3-(4-cyanophenyl)allyl)amino)butanoate], in data set [4], the “percentage of compound peak area present … PBS” value was found to be 71.96% and the “percentage of compound peak area present … Tris” value is recorded as 61.32%.

Turning to `CC(C)OC(=O)[C@@H](N)CCN(C/C=C/c1ccc(C#N)cc1)C[C@H]1O[C@@H](n2cnc3c(N)ncnc32)[C@H](O)[C@@H]1O` [Compound 12e, Isopropyl-(S)-2-amino-4-((((2R,3S,4R,5R)-5-(6-amino-9H-purin-9-yl)-3,4-dihydroxytetrahydrofuran-2-yl)methyl)((E)-3-(4-cyanophenyl)allyl)amino)butanoate], the “effect on cell viability (MTT)” value in data set [1] (100 µM, 24, 48 and 72 h) was “effect comparable to GYZ-319”; in data set [1] (1 and 10 µM, 24, 48 and 72 h), “no effects”; in data set [2] (100 µM, 24, 48 and 72 h) it was “effect comparable to GYZ-319”; in data set [2] (1 and 10 µM, 24, 48 and 72 h), “no effects”; in data set [3] (100 µM, 24, 48 and 72 h), “effect comparable to GYZ-319”; in data set [3] (1 and 10 µM, 24, 48 and 72 h), “no effects”. The “effect on cellular MNA levels” value at NNMT was “clear and significant decrease in MNA levels”. Further, the “percentage of compound peak area present … PBS” value in data set [4] was found to be 98.59%. Moreover, in data set [4], the “hydrolytic stability in buffer (in words)” value is “most stable”. Moreover, in data set [4], the “percentage of compound peak area present … Tris” value is recorded as 93.70%. In the data set with pig liver esterase (PLE) (5 mg/mL PLE, PBS pH 7.4, 1 mM compound), the “time to full conversion to the parent compound” value is on record as at most 4 h. Further, in the data set on pig liver esterase (PLE) (PBS pH 7.4, without PLE), the “hydrolysis in the absence of PLE” value is recorded as “no hydrolysis was observed”.

As to `N#Cc1ccc(/C=C/CN(CC[C@H](N)C(=O)OCc2ccccc2)C[C@H]2O[C@@H](n3cnc4c(N)ncnc43)[C@H](O)[C@@H]2O)cc1` [Compound 12f, Benzyl-(S)-2-amino-4-((((2R,3S,4R,5R)-5-(6-amino-9H-purin-9-yl)-3,4-dihydroxy-tetrahydrofuran-2-yl)methyl)((E)-3-(4-cyanophenyl)allyl)amino)butanoate], in data set [4], the “percentage of compound peak area present … PBS” value was 33.43%; the “hydrolytic stability in buffer (in words)” value is given as “least stable”; the “percentage of compound peak area present … Tris” value came to 21.60%.

On to `COC(=O)[C@H](CCN(C/C=C/c1ccc(C#N)cc1)C[C@H]1O[C@@H](n2cnc3c(N)ncnc32)[C@H](O)[C@@H]1O)NC(=O)CC(C)(C)c1c(C)cc(C)cc1OC(C)=O` [Compound 14b, Methyl-(S)-2-(3-(2-acetoxy-4,6-dimethylphenyl)-3-methylbutanamido)-4-((((2R,3S,4R,5R)-5-(6-amino-9H-purin-9-yl)-3,4-dihydroxytetrahydrofuran-2-yl)methyl)((E)-3-(4-cyanophenyl)allyl)amino)butanoate], for which, in data set [4], the “percentage of compound peak area present … PBS” value is given as 88.08% and the “percentage of compound peak area present … Tris” value is 73.88%.

Turning to `CCOC(=O)[C@H](CCN(C/C=C/c1ccc(C#N)cc1)C[C@H]1O[C@@H](n2cnc3c(N)ncnc32)[C@H](O)[C@@H]1O)NC(=O)CC(C)(C)c1c(C)cc(C)cc1OC(C)=O` [Compound 14c, Ethyl-(S)-2-(3-(2-acetoxy-4,6-dimethylphenyl)-3-methylbutanamido)-4-((((2R,3S,4R,5R)-5-(6-amino-9H-purin-9-yl)-3,4-dihydroxytetrahydrofuran-2-yl)methyl)((E)-3-(4-cyanophenyl)allyl)amino)butanoate], in data set [4], the “percentage of compound peak area present … PBS” value turned out to be 90.44% and the “percentage of compound peak area present … Tris” value came to 87.00%.

As for `CCCOC(=O)[C@H](CCN(C/C=C/c1ccc(C#N)cc1)C[C@H]1O[C@@H](n2cnc3c(N)ncnc32)[C@H](O)[C@@H]1O)NC(=O)CC(C)(C)c1c(C)cc(C)cc1OC(C)=O` [Compound 14d, Propyl-(S)-2-(3-(2-acetoxy-4,6-dimethylphenyl)-3-methylbutanamido)-4-((((2R,3S,4R,5R)-5-(6-amino-9H-purin-9-yl)-3,4-dihydroxytetrahydrofuran-2-yl)methyl)((E)-3-(4-cyanophenyl)allyl)amino)butanoate], in data set [4], the “percentage of compound peak area present … PBS” value is 90.30% and the “percentage of compound peak area present … Tris” value worked out at 87.52%.

(Values after PMC8466754, “Esterase-Sensitive Prodrugs of a Potent Bisubstrate Inhibitor of Nicotinamide N-Methyltransferase (NNMT) Display Cellular Activity” (Biomolecules, 2021).)
